These results are taken from PubChem BioAssay (NCI).

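All cell lines were grown in 96-well plates and treated with compound for 48 hours. GI50 = concentration required for 50% inhibition of growth. TGI: concentration producing complete growth inhibition.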

Among the test systems are OVCAR-3 ovarian; HCT-116 colon; LOX IMVI melanoma; K-562 leukemia; HL-60(TB) leukemia; T-47D breast; HOP-62 NSCLC; OVCAR-5 ovarian; 786-0 renal; COLO 205 colon.
Assay in all cases: inhibition of tumour cell growth, NCI panel, 48 h

For `O=C(Nc1cccc(-n2cc(-c3ccncc3)c(-c3cc(O)cc(Cl)c3)n2)c1)c1ccc(N2CCOCC2)c(C(F)(F)F)c1`, the GI50 is 7.2 µM with OVCAR-3 ovarian; 1.96 µM in the assay on HCT-116 colon; 1.03 µM with LOX IMVI melanoma; 0.564 µM in the assay with K-562 leukemia; 0.81 µM with HL-60(TB) leukemia; 3.81 µM with T-47D breast. Moreover, the GI50 was 3.59 µM with HOP-62 NSCLC, 14.8 µM with OVCAR-5 ovarian, 2.24 µM in the assay with 786-0 renal and 17.5 µM in the assay on COLO 205 colon. Also, the TGI was above 100 µM with OVCAR-3 ovarian; above 100 µM with HCT-116 colon; 4.61 µM in the assay with LOX IMVI melanoma; 4.88 µM with K-562 leukemia; 3.04 µM in the assay on HL-60(TB) leukemia; above 100 µM in the assay with T-47D breast. For the same compound, the TGI with HOP-62 NSCLC amounted to 58.2 µM; with OVCAR-5 ovarian it was 39.6 µM; in the assay with 786-0 renal, 10.1 µM; in the assay with COLO 205 colon, 64.5 µM.
Turning to `C[C@]12CC[C@H]3[C@@H](CCC4=CC(=O)CC[C@@]43C)[C@@H]1CC[C@@H]2c1csc(N)n1`, the GI50 was 3.38 µM with OVCAR-3 ovarian; 3.15 µM with HCT-116 colon; 3.38 µM in the assay with LOX IMVI melanoma; 2.33 µM with K-562 leukemia; 1.65 µM in the assay on HL-60(TB) leukemia; 2.26 µM in the assay with T-47D breast. Further, the GI50 in the assay on HOP-62 NSCLC was 6.56 µM; in the assay with OVCAR-5 ovarian it was 15 µM; in the assay on 786-0 renal, 10.7 µM; with COLO 205 colon it was 3.57 µM. Moreover, the TGI in the assay with OVCAR-3 ovarian was 12.3 µM; with HCT-116 colon it was 15.3 µM; in the assay with LOX IMVI melanoma, 15.9 µM; in the assay on K-562 leukemia, above 100 µM; in the assay with HL-60(TB) leukemia, 8.18 µM; with T-47D breast, 18.8 µM. Besides, the TGI in the assay with HOP-62 NSCLC worked out at 23.7 µM; in the assay with OVCAR-5 ovarian, 38.7 µM; in the assay with 786-0 renal it was 33.4 µM; with COLO 205 colon, 14.2 µM.
`CCN=c1sc2c(n1NC(=O)c1cc3ccc1CCc1ccc(cc1)CC3)C(=O)c1ccccc1C2=O`: the GI50 in the assay on OVCAR-3 ovarian was 0.567 µM; in the assay on HCT-116 colon it was 0.754 µM; in the assay on LOX IMVI melanoma it was 0.478 µM; in the assay on K-562 leukemia, 0.92 µM; with HL-60(TB) leukemia it was 0.815 µM; with T-47D breast, 0.706 µM. The GI50 was 1.02 µM with HOP-62 NSCLC, 0.587 µM with OVCAR-5 ovarian, 0.727 µM in the assay on 786-0 renal and 1.56 µM with COLO 205 colon. For the same compound, the TGI in the assay on OVCAR-3 ovarian was 1.52 µM; in the assay on HCT-116 colon, 2.07 µM; in the assay with LOX IMVI melanoma, 1.24 µM; with K-562 leukemia it was 13 µM; in the assay on HL-60(TB) leukemia it was 2.3 µM; with T-47D breast, 2.34 µM. Besides, the TGI with HOP-62 NSCLC was 2.76 µM; in the assay on OVCAR-5 ovarian it was 1.15 µM; with 786-0 renal, 1.62 µM; in the assay with COLO 205 colon, 3.71 µM.
`COc1ccc(OC)c(NCC(=O)n2nc(/C=C\c3ccc(O)c(OC)c3)cc2/C=C\c2ccc(O)c(OC)c2)c1`: the GI50 with OVCAR-3 ovarian is 2.58 µM; in the assay with K-562 leukemia, 0.729 µM; with HL-60(TB) leukemia, 0.989 µM; with T-47D breast it was 3.05 µM; in the assay on HOP-62 NSCLC it was 3.03 µM; in the assay on OVCAR-5 ovarian, 2.35 µM. Also, the GI50 in the assay on 786-0 renal is 2.1 µM; in the assay with COLO 205 colon it was 2.11 µM. Besides, the TGI in the assay on OVCAR-3 ovarian is 13.9 µM; in the assay on K-562 leukemia, above 100 µM; in the assay with HL-60(TB) leukemia it was 5.05 µM; with T-47D breast, 14.6 µM; in the assay on HOP-62 NSCLC it was 13 µM; in the assay with OVCAR-5 ovarian it was 5.54 µM. Also, the values for the TGI in the assay with 786-0 renal and in the assay with COLO 205 colon were 7.97 µM and 4.27 µM, respectively.
Consider `CN[C@@H](C)C(=O)N[C@H]1CN(S(=O)(=O)c2cccc(S(=O)(=O)N3CC[C@H]4CC[C@@H](C(=O)NC(c5ccccc5)c5ccccc5)N4C(=O)[C@@H](NC(=O)[C@H](C)NC)C3)c2)CC[C@H]2CC[C@@H](C(=O)NC(c3ccccc3)c3ccccc3)N2C1=O`, for which the GI50 with OVCAR-3 ovarian was 12.2 µM; with HCT-116 colon it was 18.4 µM; in the assay on LOX IMVI melanoma, 14.8 µM; with K-562 leukemia, 26.5 µM; in the assay with HL-60(TB) leukemia, 0.0317 µM; with T-47D breast, 23.6 µM. Moreover, the GI50 with HOP-62 NSCLC is 5.14 µM; with OVCAR-5 ovarian it was 18.6 µM; in the assay on 786-0 renal it was 20 µM; in the assay on COLO 205 colon it was 15.3 µM. Besides, the TGI was 25.2 µM with OVCAR-3 ovarian; 51.2 µM in the assay on HCT-116 colon; 36.5 µM in the assay with LOX IMVI melanoma; above 100 µM in the assay with K-562 leukemia; 1.69 µM in the assay on HL-60(TB) leukemia; above 100 µM with T-47D breast. Also, the TGI with HOP-62 NSCLC was above 100 µM; in the assay on OVCAR-5 ovarian it was 39.9 µM; with 786-0 renal, 43.8 µM; in the assay on COLO 205 colon, 35.2 µM.
For `O=C1Oc2ccccc2C(=O)/C1=C1/C=C(c2ccccc2)SS1`, the TGI is above 100 µM in the assay with OVCAR-3 ovarian; above 100 µM with HCT-116 colon; above 100 µM in the assay with LOX IMVI melanoma; above 100 µM in the assay with K-562 leukemia; 45.2 µM in the assay with HL-60(TB) leukemia; above 100 µM with T-47D breast. For the same compound, the TGI in the assay on HOP-62 NSCLC, with OVCAR-5 ovarian, in the assay with 786-0 renal and in the assay with COLO 205 colon was above 100 µM throughout.
On to `CCN(CC)CCCNc1ccc(C)c2sc3ccccc3c(=O)c12`, for which the GI50 is 3.42 µM in the assay on OVCAR-3 ovarian; 0.407 µM with HCT-116 colon; 0.423 µM in the assay on LOX IMVI melanoma; 1.71 µM in the assay on HL-60(TB) leukemia; 0.492 µM with T-47D breast; 1.14 µM in the assay on HOP-62 NSCLC. Moreover, the GI50 in the assay with OVCAR-5 ovarian is 1.26 µM; in the assay with 786-0 renal, 0.822 µM; in the assay on COLO 205 colon, 0.189 µM. In addition, the TGI with OVCAR-3 ovarian amounted to 16.2 µM; in the assay on HCT-116 colon it was 1.59 µM; in the assay on LOX IMVI melanoma, 1.58 µM; in the assay with HL-60(TB) leukemia, 3.63 µM; in the assay on T-47D breast it was 2.55 µM; in the assay on HOP-62 NSCLC, 2.55 µM. For the same compound, the figures for the TGI in the assay with OVCAR-5 ovarian, in the assay on 786-0 renal and in the assay on COLO 205 colon were 2.76 µM, 2.18 µM and 0.384 µM, respectively.
Regarding `COCC([C@@H](O)C(O)C(=O)NCC[C@@H](C)c1nc(/C=C/CC2OC3(C[C@H](O)C2C)OC(C(C[C@H](O)C(C)[C@H](O)C(C)/C=C(C)/C(C)=C/C=C/C(C)=C/C#N)OC)[C@@H](OP(=O)(O)O)C3(C)C)co1)N(C)C` (some centres not stated), the TGI in the assay on OVCAR-3 ovarian came out at 0.000326 µM; in the assay with HCT-116 colon it was 0.000315 µM; with LOX IMVI melanoma, 0.000561 µM; in the assay on HL-60(TB) leukemia it was 0.00207 µM; in the assay with T-47D breast, 0.00195 µM; in the assay on OVCAR-5 ovarian it was 0.000345 µM. Further, the TGI with 786-0 renal was 0.000314 µM; in the assay on COLO 205 colon, 0.000309 µM.
